Active and inactive are the calls of the source.
Experiments:
[1] = target: Adenosylmethionine-8-amino-7-oxononanoate aminotransferase (Mycobacterium tuberculosis, UniProt P9WQ81); assay: Mycobacterium tuberculosis BioA enzyme inhibitor Measured in Biochemical System Using Plate Reader - 2163-02_Inhibitor_Dose_CherryPick_Activity.; assay type: functional, Mycobacterium tuberculosis UT205
[2] = HEK293T cell cytotoxicity, dose response, cytotoxicity control for HIV Vif inhibitor project, cherry-picks (AID 652208); assay type: functional, cell-based
[3] = target: Serine/threonine-protein kinase pim-1 (Homo sapiens, UniProt P11309); assay type: functional
[4] = target: Cell division cycle 7-related protein kinase (Homo sapiens, UniProt O00311); assay type: functional;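 note: value obtained from a kinome-wide kinase panel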
[5] = target: Homeodomain-interacting protein kinase 2 (Homo sapiens, UniProt Q9H2X6); assay type: functional;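 note: measured within a kinome-wide kinase profiling panel, HIPK2 being one panel member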
[6] = target: MAP kinase-interacting serine/threonine-protein kinase 2 (Homo sapiens, UniProt Q9HBH9); assay type: functional
[7] = target: T1, Interleukin-1 receptor-associated kinase 4 (Homo sapiens, UniProt Q9NWZ3); assay type: functional
T1 sequence (Q9NWZ3 whole entry): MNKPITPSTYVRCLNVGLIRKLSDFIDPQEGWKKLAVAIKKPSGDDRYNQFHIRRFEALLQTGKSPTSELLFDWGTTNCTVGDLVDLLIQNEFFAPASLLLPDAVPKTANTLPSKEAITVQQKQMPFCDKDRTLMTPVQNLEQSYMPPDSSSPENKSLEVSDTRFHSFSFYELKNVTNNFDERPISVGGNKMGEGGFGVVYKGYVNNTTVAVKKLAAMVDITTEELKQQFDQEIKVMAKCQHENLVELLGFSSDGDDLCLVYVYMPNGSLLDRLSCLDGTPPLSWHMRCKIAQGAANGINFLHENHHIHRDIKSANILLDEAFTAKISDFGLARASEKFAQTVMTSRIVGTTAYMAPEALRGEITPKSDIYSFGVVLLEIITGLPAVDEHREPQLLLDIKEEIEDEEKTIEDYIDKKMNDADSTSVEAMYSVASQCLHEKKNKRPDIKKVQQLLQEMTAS

[8] = target: Glycogen synthase kinase-3 beta (Homo sapiens, UniProt P49841); assay type: functional;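 note: value comes from a broad kinome profiling panel, with GSK3B as the panel member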
[9] = target: cAMP-dependent protein kinase catalytic subunit alpha (Homo sapiens, UniProt P17612); assay type: functional
[10] = target: Dual specificity protein kinase CLK4 (Homo sapiens, UniProt Q9HAZ1); assay type: functional
[11] = target: Mitogen-activated protein kinase kinase kinase kinase 4 (Homo sapiens, UniProt O95819); assay type: functional
H9c2 = assay: cells; assay type: functional, cell-based; settings: Rattus norvegicus, H9c2, Myocardium
[12] = Counterscreen for inhibitors of Trypanosoma brucei methionyl tRNA synthetase (MetRS): Luminescence-based cell-based high throughput dose response assay to identify compounds that are cytotoxic to Jurkat human T lymphocyte cells.; assay type: functional
[13] = target: Nuclear receptor subfamily 5 group A member 2 (Homo sapiens, UniProt O00482); assay type: functional, cell-based;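 note: HEK293T cells transfected with LRH-1 and a StAR promoter luciferase reporter; potency for inhibitors that lower LRH-1 driven reporter light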
Steroidogenic factor 1 = Steroidogenic factor 1 (Homo sapiens, UniProt Q13285); assay: Counterscreen for inverse agonists of the liver receptor homolog-1 (LRH-1; NR5A2): Luminescence-based cell-based high throughput dose response assay to identify inverse agonists of the Steroidogenic Factor 1 Nuclear Receptor (SF1; NR5A1).; assay type: functional
[14] = StAR promoter reporter inhibition counter-screen, dose response, counter-screen for LRH-1 inverse agonist project, cell-based, luminescence, luciferase reporter (AID 651969); assay type: functional
Genome polyprotein = Genome polyprotein (dengue virus type 2, UniProt P29990); assay: Dengue-2 NS5 methyltransferase inhibitors, primary screen, biochemical, confirmation dose response (AID 588689); assay type: functional
[15] = target: T2, Polyadenylate-binding protein 1 (Homo sapiens, UniProt P11940); assay: PABP1 MLLE–PAM2 interaction inhibitors, dose response, miRNA deadenylation inhibitor project, biochemical, fluorescence polarization, Cy5-PAM2 peptide, secondary (AID 602260); assay type: functional; settings: read-out: IC50_Mean
[16] = target: T2, Polyadenylate-binding protein 1; assay: PABP1 MLLE–PAM2 binding inhibitor potency, dose response, biochemical, fluorescence polarization, FITC-PAM2 peptide (AID 602259); assay type: functional; settings: read-out: IC50_Mean
[17] = target: T3, Sentrin-specific protease 8 (Homo sapiens, UniProt Q96LD8); assay type: functional
T3 sequence (Q96LD8 whole entry): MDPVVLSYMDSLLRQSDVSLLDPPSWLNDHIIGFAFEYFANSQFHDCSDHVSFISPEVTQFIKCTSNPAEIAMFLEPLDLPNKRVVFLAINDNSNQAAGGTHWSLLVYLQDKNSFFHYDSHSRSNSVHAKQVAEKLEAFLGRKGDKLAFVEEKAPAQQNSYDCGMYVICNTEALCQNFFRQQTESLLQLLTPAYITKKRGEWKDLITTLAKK

[18] = target: T3, Sentrin-specific protease 8; assay type: functional; remark: listed apart in the source
[19] = inhibitors of intracellular T. cruzi replication, confirmation, NIH3T3 host cells, beta-gal luminescence (AID 2044); assay type: functional, cell-based;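 note: intracellular parasites grown in NIH/3T3 mouse fibroblasts as host cells; luminescent beta-galactosidase reporter signal from transgenic T. cruzi replicating inside host cells; inhibitors lower the luminescence signal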
[20] = growth suppression of PTEN-null colon cells, dose response, cell-based, HCT116 PTEN knockout (AID 1047); assay type: functional;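 note: HCT116 colon tumor cells with PTEN knocked out; cells exposed to compound for 60 hours before readout; potency for loss of cell viability measured by luminescence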
[21] = cytotoxicity toward NIH3T3 fibroblasts, dose response, counter-screen, cell-based, ATP luminescence, mouse fibroblasts (AID 2010); assay type: functional;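 note: cells exposed to compound for about 90 hours before reading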
[22] = growth suppression of beta-catenin-knockout colon cells, dose response, cell-based, HCT116, human colon tumor (AID 1045); assay type: functional;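 note: HCT116 colon tumor cells with beta catenin knocked out; cells exposed to compound for 60 hours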
[23] = target: Arf-GAP with SH3 domain, ANK repeat and PH domain-containing protein 1 (Homo sapiens, UniProt Q9ULH1); assay type: functional;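 note: biochemical fluorescence polarization dose–response screen measuring inhibition of ASAP1; ASAP1 GAP domain stimulating GTP hydrolysis by truncated human ARF1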
Interleukin-8 = Interleukin-8 (Homo sapiens, UniProt P10145); assay: Dose Response confirmation of uHTS small molecule hits for cystic fibrosis induced NFkb Inhibitors in a PAF-induced IL8 counterscreen.; assay type: functional; settings: read-out: IC50_Mean
[24] = HeLa cell cytotoxicity, dose response, cytotoxicity control for MgcRacGAP inhibitor project (AID 624300); assay type: functional
[25] = human group III sPLA2 inhibitors, dose response, biochemical, QFRET, IC50 (AID 743457);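 note: green fluorescence rise as the enzyme cleaves BODIPY PC-A2 in liposomes; potency for inhibition of the enzyme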
[26] = Luminescence Cell-Based Dose Retest to Confirm Inhibitors of Cancer Stem Cells. [Related pubchem assays (depositor defined):AID2717, AID2721]; assay type: functional; settings: Homo sapiens
INS1 = assay: beta cell apoptosis inhibitors, cytokine rescue, dose response, luminescence, retest (AID 449756); assay type: functional, cell-based; settings: Rattus norvegicus;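 note: cell death triggered by IL-1 beta plus TNF-alpha plus IFN-gamma mixture; protective hits raise ATP signal compared with cytokine alone wells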
[27] = target: 26S proteasome non-ATPase regulatory subunit 14 (Homo sapiens, UniProt O00487); assay: inhibition of proteasome subunit RPN11 – biochemical, fluorescence polarization, uHTS hits, confirmation (AID 602368); assay type: functional
[28] = target: 72 kDa type IV collagenase (Homo sapiens, UniProt P08253); assay: Dose Response validation of uHTS RPN11 inhibitor hits using a MMP-2 Fluorescence assay.; assay type: functional
Prothrombin = Prothrombin (Bos taurus, UniProt P00735); assay: thrombin inhibition, dose response, biochemical, fluorescence polarization, uHTS hits (AID 602369); assay type: functional
[29] = target: T4, Apoptotic protease-activating factor 1 (Homo sapiens, UniProt O14727); assay: SAR analysis of small molecule Activators of Apaf-1 in a Fluorescent assay.; assay type: functional; settings: read-out: EC50_Mean;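 note: caspase-3 cleavage of fluorogenic Rh110 DEVD substrate downstream of apoptosome activation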
T4 sequence (O14727 whole entry): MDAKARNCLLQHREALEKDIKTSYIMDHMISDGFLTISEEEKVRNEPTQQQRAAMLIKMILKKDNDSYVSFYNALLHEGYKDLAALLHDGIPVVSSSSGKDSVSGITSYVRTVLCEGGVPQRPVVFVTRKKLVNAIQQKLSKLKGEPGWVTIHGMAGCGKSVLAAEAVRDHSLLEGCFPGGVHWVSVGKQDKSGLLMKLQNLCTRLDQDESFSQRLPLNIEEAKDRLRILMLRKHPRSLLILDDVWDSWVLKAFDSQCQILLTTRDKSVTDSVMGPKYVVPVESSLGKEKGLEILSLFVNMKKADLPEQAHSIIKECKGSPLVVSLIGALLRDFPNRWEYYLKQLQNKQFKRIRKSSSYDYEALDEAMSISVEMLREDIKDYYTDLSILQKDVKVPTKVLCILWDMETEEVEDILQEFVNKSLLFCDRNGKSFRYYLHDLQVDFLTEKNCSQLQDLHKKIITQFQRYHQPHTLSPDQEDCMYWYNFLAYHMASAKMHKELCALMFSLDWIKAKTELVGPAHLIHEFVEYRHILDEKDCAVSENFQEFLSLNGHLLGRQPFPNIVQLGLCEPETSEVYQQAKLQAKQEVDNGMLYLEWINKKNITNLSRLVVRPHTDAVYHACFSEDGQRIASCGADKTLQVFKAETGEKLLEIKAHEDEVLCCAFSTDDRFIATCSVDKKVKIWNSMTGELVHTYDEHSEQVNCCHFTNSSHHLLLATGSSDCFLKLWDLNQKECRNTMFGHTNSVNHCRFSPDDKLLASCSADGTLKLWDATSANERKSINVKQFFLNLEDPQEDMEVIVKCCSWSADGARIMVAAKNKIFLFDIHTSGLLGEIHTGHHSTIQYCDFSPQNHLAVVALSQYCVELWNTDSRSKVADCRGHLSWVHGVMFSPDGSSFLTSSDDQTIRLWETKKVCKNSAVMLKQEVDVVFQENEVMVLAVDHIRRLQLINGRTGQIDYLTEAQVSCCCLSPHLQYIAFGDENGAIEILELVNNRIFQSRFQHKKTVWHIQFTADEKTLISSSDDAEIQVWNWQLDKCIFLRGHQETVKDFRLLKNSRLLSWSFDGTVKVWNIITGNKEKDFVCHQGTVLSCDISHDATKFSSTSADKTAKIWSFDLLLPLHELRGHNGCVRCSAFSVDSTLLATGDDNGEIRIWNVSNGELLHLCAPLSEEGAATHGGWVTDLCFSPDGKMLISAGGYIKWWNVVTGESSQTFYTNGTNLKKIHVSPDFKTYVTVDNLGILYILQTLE

Chain of Steroidogenic factor 1 (Q13285 whole entry): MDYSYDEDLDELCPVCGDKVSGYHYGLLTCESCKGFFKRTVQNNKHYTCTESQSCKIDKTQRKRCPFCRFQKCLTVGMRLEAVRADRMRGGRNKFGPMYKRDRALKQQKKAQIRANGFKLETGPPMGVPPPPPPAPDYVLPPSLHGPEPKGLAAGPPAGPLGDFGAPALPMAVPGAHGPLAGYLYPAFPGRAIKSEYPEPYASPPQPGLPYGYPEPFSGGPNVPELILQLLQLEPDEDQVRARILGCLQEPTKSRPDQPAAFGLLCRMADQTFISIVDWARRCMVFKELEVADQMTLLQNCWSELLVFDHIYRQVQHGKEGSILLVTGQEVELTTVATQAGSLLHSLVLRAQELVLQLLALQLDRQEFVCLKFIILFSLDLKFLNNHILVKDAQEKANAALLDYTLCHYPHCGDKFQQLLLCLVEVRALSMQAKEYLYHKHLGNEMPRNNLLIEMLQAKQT
Chain of Adenosylmethionine-8-amino-7-oxononanoate aminotransferase (P9WQ81 whole entry): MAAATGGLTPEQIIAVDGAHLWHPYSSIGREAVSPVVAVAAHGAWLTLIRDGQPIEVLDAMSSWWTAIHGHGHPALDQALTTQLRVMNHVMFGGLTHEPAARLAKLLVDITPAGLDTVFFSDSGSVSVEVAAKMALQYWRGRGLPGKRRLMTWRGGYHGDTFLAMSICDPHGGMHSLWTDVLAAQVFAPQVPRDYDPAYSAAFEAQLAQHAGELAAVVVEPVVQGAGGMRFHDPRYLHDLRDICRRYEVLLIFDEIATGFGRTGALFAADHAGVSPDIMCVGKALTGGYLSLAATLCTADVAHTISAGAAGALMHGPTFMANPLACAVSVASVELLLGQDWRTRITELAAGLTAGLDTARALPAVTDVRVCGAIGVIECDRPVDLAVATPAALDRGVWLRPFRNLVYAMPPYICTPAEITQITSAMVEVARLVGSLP
Chain of Glycogen synthase kinase-3 beta (P49841 whole entry): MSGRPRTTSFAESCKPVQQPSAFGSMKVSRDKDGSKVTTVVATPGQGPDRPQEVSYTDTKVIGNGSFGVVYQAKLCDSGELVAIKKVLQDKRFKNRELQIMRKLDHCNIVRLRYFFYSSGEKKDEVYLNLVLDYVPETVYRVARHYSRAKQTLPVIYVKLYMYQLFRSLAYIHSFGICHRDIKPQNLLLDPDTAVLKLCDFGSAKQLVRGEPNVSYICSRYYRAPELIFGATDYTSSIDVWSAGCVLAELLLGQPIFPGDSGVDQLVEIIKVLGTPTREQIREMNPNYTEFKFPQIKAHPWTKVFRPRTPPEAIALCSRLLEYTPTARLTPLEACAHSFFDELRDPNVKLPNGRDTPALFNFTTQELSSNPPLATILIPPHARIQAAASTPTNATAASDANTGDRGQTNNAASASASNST
Chain of Arf-GAP with SH3 domain, ANK repeat and PH domain-containing protein 1 (Q9ULH1 whole entry, the tested form may be a part): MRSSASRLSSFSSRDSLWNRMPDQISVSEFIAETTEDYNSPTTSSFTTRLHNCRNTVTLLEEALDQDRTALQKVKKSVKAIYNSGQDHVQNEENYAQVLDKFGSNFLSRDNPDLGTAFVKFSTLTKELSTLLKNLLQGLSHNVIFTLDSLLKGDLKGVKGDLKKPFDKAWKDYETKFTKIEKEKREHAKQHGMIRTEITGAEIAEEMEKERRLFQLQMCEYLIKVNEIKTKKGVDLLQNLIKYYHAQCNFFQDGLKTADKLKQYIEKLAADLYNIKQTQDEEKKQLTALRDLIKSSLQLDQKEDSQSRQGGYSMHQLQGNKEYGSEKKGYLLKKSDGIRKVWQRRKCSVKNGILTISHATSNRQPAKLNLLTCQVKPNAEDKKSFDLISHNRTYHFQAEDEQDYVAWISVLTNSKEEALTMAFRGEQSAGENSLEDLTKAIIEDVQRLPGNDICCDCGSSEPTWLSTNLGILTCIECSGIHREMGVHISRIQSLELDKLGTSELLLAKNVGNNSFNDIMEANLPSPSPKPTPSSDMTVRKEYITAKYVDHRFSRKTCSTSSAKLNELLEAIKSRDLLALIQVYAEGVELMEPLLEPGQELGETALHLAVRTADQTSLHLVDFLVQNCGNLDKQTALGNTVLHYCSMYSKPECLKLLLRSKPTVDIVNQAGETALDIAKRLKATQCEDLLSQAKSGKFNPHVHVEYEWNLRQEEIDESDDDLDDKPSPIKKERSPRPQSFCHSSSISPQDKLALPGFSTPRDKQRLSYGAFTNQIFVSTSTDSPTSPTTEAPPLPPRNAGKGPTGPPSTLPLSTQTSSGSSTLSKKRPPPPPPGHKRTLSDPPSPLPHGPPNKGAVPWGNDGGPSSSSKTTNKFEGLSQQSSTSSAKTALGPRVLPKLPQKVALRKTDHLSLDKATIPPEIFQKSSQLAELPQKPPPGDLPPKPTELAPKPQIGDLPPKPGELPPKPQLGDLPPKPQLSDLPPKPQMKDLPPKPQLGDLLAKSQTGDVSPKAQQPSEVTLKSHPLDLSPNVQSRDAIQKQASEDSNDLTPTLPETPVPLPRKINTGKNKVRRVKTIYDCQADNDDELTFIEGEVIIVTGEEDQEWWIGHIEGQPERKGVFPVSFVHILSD
Chain of Homeodomain-interacting protein kinase 2 (Q9H2X6 whole entry): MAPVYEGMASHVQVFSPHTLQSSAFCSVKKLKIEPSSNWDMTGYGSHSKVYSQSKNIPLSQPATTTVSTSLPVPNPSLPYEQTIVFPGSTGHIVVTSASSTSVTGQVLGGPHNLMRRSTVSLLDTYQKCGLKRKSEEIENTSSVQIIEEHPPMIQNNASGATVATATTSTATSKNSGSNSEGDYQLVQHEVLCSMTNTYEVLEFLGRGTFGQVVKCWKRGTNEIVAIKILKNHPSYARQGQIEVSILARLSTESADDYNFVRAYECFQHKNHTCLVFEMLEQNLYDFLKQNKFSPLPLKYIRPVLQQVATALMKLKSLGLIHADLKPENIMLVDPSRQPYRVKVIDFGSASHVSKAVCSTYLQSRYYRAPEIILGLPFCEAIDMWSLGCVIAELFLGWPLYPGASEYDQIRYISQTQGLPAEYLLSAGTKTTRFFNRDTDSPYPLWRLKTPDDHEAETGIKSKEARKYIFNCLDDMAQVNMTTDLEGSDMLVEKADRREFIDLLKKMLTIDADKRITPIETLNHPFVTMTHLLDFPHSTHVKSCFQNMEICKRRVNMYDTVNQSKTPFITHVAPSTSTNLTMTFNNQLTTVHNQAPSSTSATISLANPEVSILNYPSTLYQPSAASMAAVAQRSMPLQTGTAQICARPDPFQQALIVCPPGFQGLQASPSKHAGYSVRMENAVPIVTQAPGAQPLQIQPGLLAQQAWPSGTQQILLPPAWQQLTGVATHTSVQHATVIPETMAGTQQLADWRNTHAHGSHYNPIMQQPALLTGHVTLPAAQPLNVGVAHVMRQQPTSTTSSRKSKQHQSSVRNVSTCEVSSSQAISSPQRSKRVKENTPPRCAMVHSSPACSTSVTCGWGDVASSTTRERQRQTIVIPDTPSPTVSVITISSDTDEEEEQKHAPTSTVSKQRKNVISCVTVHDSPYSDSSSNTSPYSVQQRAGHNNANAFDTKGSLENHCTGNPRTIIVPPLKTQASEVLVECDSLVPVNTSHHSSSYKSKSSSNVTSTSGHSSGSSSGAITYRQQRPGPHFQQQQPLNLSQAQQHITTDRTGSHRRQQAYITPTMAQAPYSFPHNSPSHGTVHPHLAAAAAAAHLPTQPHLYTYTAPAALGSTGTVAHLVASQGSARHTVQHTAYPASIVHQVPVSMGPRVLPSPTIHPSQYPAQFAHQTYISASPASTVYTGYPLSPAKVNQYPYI
Chain of Mitogen-activated protein kinase kinase kinase kinase 4 (O95819 whole entry): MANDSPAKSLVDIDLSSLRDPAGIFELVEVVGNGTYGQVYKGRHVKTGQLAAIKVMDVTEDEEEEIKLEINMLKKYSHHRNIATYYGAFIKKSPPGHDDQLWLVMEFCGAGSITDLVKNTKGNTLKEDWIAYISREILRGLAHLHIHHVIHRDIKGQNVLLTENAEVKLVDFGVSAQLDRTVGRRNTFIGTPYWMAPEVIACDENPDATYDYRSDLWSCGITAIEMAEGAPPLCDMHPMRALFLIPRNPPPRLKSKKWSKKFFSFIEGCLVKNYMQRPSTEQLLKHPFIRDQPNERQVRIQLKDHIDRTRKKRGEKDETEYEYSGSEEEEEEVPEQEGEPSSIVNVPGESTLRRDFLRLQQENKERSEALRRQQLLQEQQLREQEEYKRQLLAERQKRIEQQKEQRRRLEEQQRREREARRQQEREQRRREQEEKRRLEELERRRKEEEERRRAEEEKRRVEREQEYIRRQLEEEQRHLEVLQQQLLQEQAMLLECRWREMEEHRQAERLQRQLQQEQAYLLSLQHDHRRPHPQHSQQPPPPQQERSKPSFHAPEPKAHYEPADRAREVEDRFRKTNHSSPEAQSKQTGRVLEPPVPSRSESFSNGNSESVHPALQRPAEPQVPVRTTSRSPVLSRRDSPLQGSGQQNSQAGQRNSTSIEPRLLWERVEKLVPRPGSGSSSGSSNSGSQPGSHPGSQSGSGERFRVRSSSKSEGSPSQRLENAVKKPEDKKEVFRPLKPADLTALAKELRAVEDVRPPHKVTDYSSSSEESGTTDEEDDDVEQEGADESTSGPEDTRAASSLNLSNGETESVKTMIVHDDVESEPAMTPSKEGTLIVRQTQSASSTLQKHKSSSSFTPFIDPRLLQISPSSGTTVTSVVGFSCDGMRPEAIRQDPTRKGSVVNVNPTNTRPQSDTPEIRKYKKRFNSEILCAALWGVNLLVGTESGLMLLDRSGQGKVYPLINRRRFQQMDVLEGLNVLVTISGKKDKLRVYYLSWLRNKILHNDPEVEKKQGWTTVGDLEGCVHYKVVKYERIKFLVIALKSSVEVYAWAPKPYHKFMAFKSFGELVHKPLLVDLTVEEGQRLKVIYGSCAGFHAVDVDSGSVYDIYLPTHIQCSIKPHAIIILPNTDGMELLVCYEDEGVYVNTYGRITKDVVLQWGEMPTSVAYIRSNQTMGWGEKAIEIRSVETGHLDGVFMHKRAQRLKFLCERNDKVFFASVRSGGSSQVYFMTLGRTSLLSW
Chain of Interleukin-8 (P10145 whole entry): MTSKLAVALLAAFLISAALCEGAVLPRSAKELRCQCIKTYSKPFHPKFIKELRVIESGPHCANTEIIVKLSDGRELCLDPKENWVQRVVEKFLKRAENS

## O=C(Nc1nccs1)[C@H]1[C@H](CO)[C@H]2Cn3c(ccc(-c4cccnc4)c3=O)[C@H]2N1CC1CCCC1
[1]
  AC50: 8.95 µM (active)

## CC(C)n1nc(C(=O)Nc2ccc(-n3cnnn3)cc2)c2ccccc2c1=O
[2]
  AC50: > 52 µM (inactive)

## c1ccc(Cn2nnc(-c3ccc4[nH]ncc4c3)c2-c2ccccc2)cc1
[3]
  Ki: 3.16 µM (active)
[4]
  Ki: 0.000631 µM (active)
[5]
  Ki: 1 µM (active)
[6]
  Ki: 0.0398 µM (active)
[7]
  Ki: > 10 µM (inactive)
[8]
  Ki: 0.01 µM (active)
[9]
  Ki: 0.0316 µM (active)
[10]
  Ki: 0.00501 µM (active)
[11]
  Ki: 0.794 µM (active)

## Cc1cc(Cl)ccc1OCCCC(=O)NNC(=O)c1ccccc1O
H9c2
  IC50: > 79 µM (inactive)
[12]
  IC50: 83.3 µM (inactive)

## O=C(C[C@@H]1C[C@@H]2c3cc(NC(=O)c4cccnc4)ccc3O[C@@H]2[C@@H](CO)O1)NCCc1ccccc1
[1]
  AC50: 6.92 µM (active)

## COc1ccc(NC(=O)CSc2ccc3c(c2)OCCO3)cc1
[13]
  IC50: 35.9 µM (inactive)
Steroidogenic factor 1
  IC50: 5.7 µM (active)
[14]
  IC50: 35.9 µM (inactive)

## Oc1ccc(CN2CCCCC2)nc1O
Genome polyprotein
  IC50: 64.9 µM (active)
[15]
  IC50: > 66 µM (inactive)
[16]
  IC50: 57.9 µM (inactive)
[17]
  IC50: 15.5 µM (active)
[18]
  IC50: 3.73 µM (active)

## Cc1ccc(NC(=O)CSc2nnc([C@@H]3CCCN3C(=O)OC(C)(C)C)o2)c(C)c1
[13]
  IC50: 1.33 µM (active)
Steroidogenic factor 1
  IC50: 0.932 µM (active)
[14]
  IC50: 35.9 µM (inactive)

## N#Cc1cc([N+](=O)[O-])ccc1Oc1cccc(/C=N/NC(=O)c2ccc(Cl)cc2)c1
[19]
  EC50: 0.616 µM (active)
[20]
  EC50: 48.5 µM (active)
[21]
  EC50: > 60 µM (not active)
[22]
  EC50: 51.9 µM (active)
[23]
  IC50: 32.8 µM (inactive)

## CC(=O)Oc1ccccc1C(=O)Oc1ccc(/C=N/n2cnnc2)cc1
Interleukin-8
  IC50: 4.67 µM (active)

## c1cnc2[nH]cc(-c3ccnc(NCC4CCCCC4)n3)c2c1
[3]
  Ki: > 10 µM (inactive)
[4]
  Ki: 0.00794 µM (active)
[5]
  Ki: 0.0158 µM (active)
[6]
  Ki: 0.0794 µM (active)
[7]
  Ki: 0.316 µM (active)
[8]
  Ki: 0.126 µM (active)
[9]
  Ki: 0.2 µM (active)
[11]
  Ki: 0.02 µM (active)

## COc1ccccc1NC(=O)NNC(=O)c1ccc2ccccc2c1O
[24]
  CC50: 100 µM (active)
[25]
  IC50: > 122 µM (inactive)

## O=C(N/N=C/c1cc(Cl)ccc1O)c1ccc(Br)cc1
[26]
  AC50: 1.09 µM (active)
INS1
  AC50: 0.773 µM (active)
[27]
  IC50: 12.7 µM (active)
[28]
  IC50: 10.3 µM (active)
Prothrombin
  IC50: 63.2 µM (active)
[23]
  IC50: 21.3 µM (inactive)

## CCOc1cccc(C(=O)Nc2ccc3oc(Cc4ccc(Cl)cc4)nc3c2)c1
[2]
  AC50: > 52 µM (inactive)

## COC(=O)[C@@H]1COC(c2cc([N+](=O)[O-])ccc2[N+](=O)[O-])=N1
[29]
  EC50: > 100 µM (inactive)

— ChEMBL document CHEMBL1201862, “PubChem BioAssay data set” (2004)
